Bridge positions count the residues as written; N and C are the ends. Ends that are not written are not given here. Peptide text beside a SMILES is read from it.
Experiments:
IL-23 = target: T1, IL-23 (Homo sapiens, UniProt P29460+Q9NPF7); assay: SPR direct binding to captured IL-23-AVI (Biacore T200); conditions: IL-23-AVI captured on streptavidin chip, 25°C, 50 μl/min, 10 mM HEPES pH 7.5, 150 mM NaCl, 0.005% P20, 3% DMSO, 1:1 binding model, multi-cycle (single cycle kinetics for 23–652 and IL-23R), n = 1, 23–447 an estimate, read-out: ka
T1 construct: made in house
T1 sequence (Q9NPF7 20-189): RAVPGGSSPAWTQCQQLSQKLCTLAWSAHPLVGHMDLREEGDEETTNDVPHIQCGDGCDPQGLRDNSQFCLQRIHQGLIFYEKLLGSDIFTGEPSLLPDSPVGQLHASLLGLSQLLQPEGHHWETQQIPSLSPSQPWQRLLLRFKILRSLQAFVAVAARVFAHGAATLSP
T1 sequence (P29460 23-328): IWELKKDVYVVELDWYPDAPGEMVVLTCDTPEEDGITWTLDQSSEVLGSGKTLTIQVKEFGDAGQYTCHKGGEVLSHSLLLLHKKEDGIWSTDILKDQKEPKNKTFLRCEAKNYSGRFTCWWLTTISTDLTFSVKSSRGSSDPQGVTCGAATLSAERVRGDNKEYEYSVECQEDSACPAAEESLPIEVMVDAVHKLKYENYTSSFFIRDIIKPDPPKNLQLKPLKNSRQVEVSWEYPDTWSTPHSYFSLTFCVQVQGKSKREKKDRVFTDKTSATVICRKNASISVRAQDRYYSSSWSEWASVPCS
Method: SPR (Biacore T200, GE Healthcare) was used to determine binding constants of the peptides against IL-23 and their competitiveness to IL-23R. All SPR experiments were performed at 25°C with flow rate of 50 μl/min. Assay buffer used in direct binding experiment was 10 mM HEPES pH 7.5, 150 mM NaCl, 0.005% P20, and 3% DMSO. Assay buffer used in competition experiment was 10 mM HEPES pH 7.5, 150 mM NaCl, 0.005% P20, and 1% BSA. All peptides were reconstituted first in DMSO as 10 mM stocks and then diluted into assay buffer. The proteins used in direct binding and competition SPR are described in S1 Table in S1 File. For direct binding of peptides against IL-23, 2000–9000 RU of IL-23-AVI was captured to streptavidin sensor chips (GE Healthcare, Series S Sensor Chip SA, BR-1005-31). Dilution series with 3-fold increment were prepared for each peptide. Initially, all peptides were tested up to 30 μM. Concentration range for some were then lowered accordingly based on affinity or nuisance behavior at high concentrations. SPR “multi-cycle” type was used for peptides 23–644, 23–437, 23–441, 23–446, and 23–447. Each cycle consisted of 30s of analyte injection and then 60s of buffer flow to monitor dissociation. “Single cycle kinetics” (SCK) type was used for 23–652 due to their long dissociation half-lives. Each SCK cycle consisted of five 60s injections of sample in increasing concentration with a final 600s of dissociation. To study IL-23 and IL-23R interaction, 200–1000 RU of IL-23-AVI and IL-23R-Fc-AVI were captured to streptavidin sensor chip. Dilution series with 3-fold increment of IL-23R-FLAG-HIS and IL-23-HIS were run in SCK cycle type as described above except the final dissociation time were 60-300s. Sensorgrams from the entire titration series for each sample were fitted globally to extract binding kinetics and affinity using Biacore T200 Evaluation Software 2.0 (GE Healthcare) according to a 1:1 binding model. To identify IL-23 binders that can block receptor binding, a competition SPR was established. In each SPR cycle, fresh IL-23R was capture (<1000 RU) by injecting 10 μg/ml of IL-23R-Fc-AVI to a Protein-A flow cell at 10 μl/min flow rate for 30s. Analyte consisted of a mixture of 20 nM of IL-23 protein and a single concentration of peptide was then injected for 30s at 50 μl/min to observe IL-23 binding. Finally, the Protein-A surface was regenerated by 10 mM Glycine pH 1.5 for 30s at 30 μl/min. IL-23 at 20 nM without peptide, “IL-23 only”, was used as control to quantify IL-23 binding without blockage; while “cold” IL-23R was used as a positive control for blockage.

IL-23:IL-23R = target: T2, IL-23:IL-23R (Homo sapiens, UniProt P29460+Q9NPF7); assay: IL-23:IL-23R protein-protein interaction assay, AlphaLISA; format: biochemical; conditions: disruption of the complex formed by IL-23 and IL-23R
T2 construct: made in house
T2 sequence (Q9NPF7 20-189): T1 sequence (Q9NPF7 20-189)
T2 sequence (P29460 23-328 partner): T1 sequence (P29460 23-328)
Method: For AlphaLISA assay, peptides at concentration of 10 mM were dissolved in DMSO and serial 3-fold dilutions were carried out using acoustic technology, dispensing peptides directly into the assay plate (ProxiPlate-384 Plus). The rest of the reagents were dissolved in assay buffer containing 25 mM HEPES pH 7.4, 150 mM NaCl, 0.02% Tween 20 and 0.1% BSA. IL-23-AVI was pre-incubated with peptide at the indicated concentrations for 30 min at room temperature. Then, FLAG-tagged IL-23R was added to the assay mix and incubated at room temperature for 1 hour. This was followed by addition of Streptavidin-coated donor beads and acceptor beads conjugated to anti-FLAG antibody. Final assay concentration of IL-23-AVI and FLAG-IL-23R were 1.5 nM and 3 nM, respectively. The assay plate was incubated for one additional hour at RT and read in an Envision plate reader. For TR-FRET assay, tested compounds were serially diluted in DMSO using an Echo acoustic and dispensed directly into the final assay plate. Final concentration of DMSO in the assay was 1%. Assays were performed by preincubation of the diluted compounds with IL-23R-FLAG for one hour at room temperature in assay buffer containing 25 mM HEPES, 150 mM NaCl, 0.02% Tween 20, 0.1% BSA; pH 7.4. Next, IL-23-AVI was added to the assay mix and incubated for 1 hour at room temperature. Finally, the detection reagents, Europium-labeled streptavidin and Anti-FLAG IgG conjugated to SureLight–Allophycocyanin were added and incubated overnight at room temperature. Then, assay microplates were read and values were collected as the ratio between fluorescence emission at 665 nm and 615 nm (665/615). The final values were expressed as a percentage of the DMSO treated controls. IC50 values were calculated by fitting the normalized data to a four parameter logistic equation.

[1] = target: T3, IL-23 p40 subunit (as in the crystallized IL-23) (human, UniProt P29460 23-328, Two N-Acetylglucosamine sugars modeled at Asn200); assay: crystal structure; IL-23:peptide mixture, 1:1 molar ratio, ~16 mg/mL; sitting-drop vapor diffusion at 8°C; 100 mM Hepes pH 7, 17% w/v PEG 3350, 150 mM potassium nitrate; 2.7 Å, space group P212121; conditions: both partners purified
T3 construct: Interleukin-12 subunit beta (p40), human; Chain of Wm1, written on its own for the contacts seen in the structure
T3 sequence (looked up): T1 sequence (P29460 23-328)

[2] = target: T4, IL-23 (heterodimer of the p19 and p40 subunits), protein for crystallization (human, UniProt Q9NPF7 20-189; P29460 23-328, Two N-Acetylglucosamine sugars modeled at Asn200); assay: as above; conditions: both partners purified
T4 construct: Interleukin-23 subunit alpha (p19), human; Interleukin-12 subunit beta (p40), human; attempts were made to limit glycosylation; Multiple flexible loops are missing from the model; also called hu IL-23
T4 sequence (looked up) 1: T1 sequence (Q9NPF7 20-189)
T4 sequence (looked up) 2: T1 sequence (P29460 23-328)

IL-23-HIS = target: T5, IL-23-HIS (human, UniProt Q9NPF7 20-189; P29460 23-328); assay: SPR; competition SPR, 25°C; IL-23R-Fc-AVI (<1000 RU) captured on Protein-A; 20 nM IL-23 mixed with one concentration of peptide or cold IL-23R injected 30 s; 10 mM HEPES pH 7.5, 150 mM NaCl, 0.005% P20, 1% BSA; n = 1; conditions: both partners purified
T5 construct: IL-23 p19 subunit, human; IL-12/IL-23 p40 subunit, human; also called IL-23 only; IL-23 protein
T5 sequence (looked up) 1: T1 sequence (Q9NPF7 20-189)
T5 sequence (looked up) 2: T1 sequence (P29460 23-328)

CC[C@H](C)[C@H](NC(=O)[C@H](CCC(=O)O)NC(=O)[C@H](CCCCN)NC(=O)[C@@H](NC(=O)[C@@H](N)Cc1ccccc1)[C@@H](C)O)C(=O)N[C@@H](CC(=O)O)C(=O)N[C@@H](CO)C(=O)N[C@@H](Cc1c[nH]c2ccccc12)C(=O)N[C@@H](Cc1c[nH]c2ccccc12)C(=O)N[C@@H](CC(C)C)C(=O)N[C@@H](CO)C(=O)N[C@@H](CC(C)C)C(=O)N[C@@H](CCSC)C(=O)N[C@@H](CO)C(=O)N[C@@H](CO)C(=O)O [23–437] (H-FTKEIDSWWLSLMSS-OH)
kon (IL-23): 178000 M⁻¹ s⁻¹ | AlphaLISA potency (IL-23:IL-23R): single digit micromolar

CC(C)C[C@@H]1NC(=O)[C@H](Cc2ccc(O)cc2)NC(=O)[C@H](Cc2ccc(O)cc2)NC(=O)[C@H](CC(C)C)NC(=O)[C@@H](NC(=O)[C@H](CCC(=O)O)NC(=O)[C@@H](N)CC(C)C)CSSC[C@@H](C(=O)N[C@@H](CC(=O)O)C(=O)N[C@@H](CC(N)=O)C(=O)O)NC(=O)[C@H](C(C)C)NC(=O)[C@H](CCCCN)NC(=O)[C@H](Cc2c[nH]c3ccccc23)NC(=O)[C@H](CCCNC(=N)N)NC1=O [23–447] (H-LECLYYLRWKVCDN-OH; disulfide 3-12)
kon (IL-23): 48300 M⁻¹ s⁻¹ | AlphaLISA potency (IL-23:IL-23R): single digit micromolar

CC[C@H](C)[C@H](NC(=O)[C@H](CCCCN)NC(=O)[C@@H](N)CCC(N)=O)C(=O)N[C@H](C(=O)N[C@@H](CCC(N)=O)C(=O)N[C@H]1CSSC[C@@H](C(=O)N[C@@H](CC(C)C)C(=O)N[C@@H](CC(C)C)C(=O)N[C@@H](CC(N)=O)C(=O)N[C@@H](CC(=O)O)C(=O)N[C@H](C(=O)O)C(C)C)NC(=O)[C@@H]2CCCN2C(=O)[C@H](Cc2ccc(O)cc2)NC(=O)[C@H]([C@@H](C)O)NC(=O)[C@H](Cc2c[nH]c3ccccc23)NC(=O)[C@H]([C@@H](C)CC)NC(=O)[C@H]([C@@H](C)CC)NC(=O)[C@H](Cc2ccc(O)cc2)NC(=O)[C@H](C(C)C)NC1=O)[C@@H](C)O [23–441] (H-QKITQCVYIIWTYPCLLNDV-OH; disulfide 6-15)
kon (IL-23): 190000 M⁻¹ s⁻¹ | AlphaLISA potency (IL-23:IL-23R): single digit micromolar

B1: IL-23 p19 subunit (as in the crystallized IL-23) (natural protein, human, UniProt Q9NPF7 20-189, looked up)
chain: T1 sequence (Q9NPF7 20-189)
notes: Interleukin-23 subunit alpha (p19), human; Chain of Wm1, written on its own for the contacts seen in the structure
binding result [1]: binds

B2: peptide 23-652 (peptide)
peptide: DTLTKSFCYFGTWCQMYGST
modifications: disulfide 8-14
notes: selected from a cyclic peptide phage library against IL-23; residues 4-18 are ordered in the structure; also called FGT/FGL-motif containing peptide; source: synthetic peptide (CPC Scientific)
binding result [2]: binds

B3: IL-23R-Fc-AVI (Fc fusion, UniProt Q5VWK5 24-355, looked up)
chain: GITNINCSGHIWVEPATIFKMGMNISIYCQAAIKNCQPRKLHFYKNGIKERFQITRINKTTARLWYKNFLEPHASMYCTAECPKHFQETLICGKDISSGYPPDIPDEVTCVIYEYSGNMTCTWNAGKLTYIDTKYVVHVKSLETEEEQQYLTSSYINISTDSLQGGKKYLVWVQAANALGMEESKQLQIHLDDIVIPSAAVISRAETINATVPKTIIYWDSQTTIEKVSCEMRYKATTNQTWNVKEFDTNFTYVQQSEFYLEPNIKYVFQVRCQETGKRYWQPWSSLFFHKTPETVPQVTSKAFQHDTWNSGLTVASISTGHLTSDNRGDIG
notes: IL-23 receptor (IL-23R); also called IL-23R sensor
binding result (IL-23-HIS): binds

— article PMC7263589, “Integration of phage and yeast display platforms: A reliable and cost effective approach for binning of peptides as displayed on-phage” (PLoS ONE, 2020)
